Results reported in patent US11207312B2, “Metallo-beta-lactamase inhibitors and methods of use thereof” (priority 2017, dated 2021).
Read-outs that look alike come from different tables or passages of the source.

Columns and labels:
NDM-1 = NDM-1 (Klebsiella pneumoniae, UniProt C7C422); test: biochemical; assay type: biochemical; conditions: CCF2-FA fluorescence assay, 2 hours at 25° C.
Description: (§1) The Class B enzyme activities were measured in the presence of the test inhibitor in a fluorescence assay against a commercially available substrate consisting of a cephalosporin core linking 7-hydroxycoumarin to fluorescein (CCF2-FA). The enzyme (NDM-1, IMP-1 or VIM-1) and the substrate were diluted in 100 mM KH2PO4 buffer (pH 7) containing 0.005% Tween-20 and 10 μM ZnSO4. In the assay, the final concentration of enzyme was 1 pM, 2 pM and 30 pM for NDM-1, IMP-1 and VIM-1, respectively, and the final concentration of CCF2-FA was 1.25 μM. The test inhibitor was dissolved in dimethylsulfoxide and diluted 1:50 in the assay, resulting in a final concentration range of 20 μM to 0.00063 μM. In a 384-well microplate, the test inhibitor was incubated with the metallo-β-lactamase enzyme and the substrate for 2 hours at 25° C. Fluorescence at 460 nm following excitation at 405 nm was measured. The IC50 value was determined from semi-logarithmic plots of enzyme inhibition versus inhibitor concentration, with a curve generated using a 4-parameter fit.

IMP-1 = IMP-1 (Serratia marcescens, UniProt P52699); test: biochemical; conditions: CCF2-FA fluorescence assay, 2 hours at 25° C.; read-out: IMP1 IC50
Description: as §1

VIM-1 = VIM-1 (Pseudomonas aeruginosa (strain ATCC 15692 / DSM 22644 / CIP 104116 / JCM 14847 / LMG 12228 / 1C / PRS 101 / PAO1), UniProt A0A0F7KYQ8); test: biochemical; conditions: CCF2-FA fluorescence assay, 2 hours at 25° C.; read-out: VIM1 IC50
Description: as §1

VIM-2 = VIM-2 (Escherichia coli, UniProt Q5U7L7); test: biochemical
[1] = test system: Escherichia coli expressing NDM-1 (CLB30016); assay type: cell-based; conditions: with imipenem 1 μg/ml; 95% inhibition of bacterial growth
Description: (§2) The bacterial strains tested included the clinical strains Escherichia coil expressing NDM-1 (CLB30005, CLB30016), Serratia marcescens expressing IMP-1 (CL5741), and Klebsiella pneumoniae expressing VIM-1 (H-LMA599644). Inhibitor activity was measured in the presence and absence of imipenem in a 384-well microplate.
(§3) The clinical strains CLB30016, CL5741 and IHMA599644 were grown on trypticase soy agar containing 5% sheep's blood. The bacteria on agar plates were incubated at 35° C. with humidity overnight. The following day, individual colonies from each clinical strain were picked and resuspended in 5 ml saline to attain an OD600 of […], for CLB30016, C15741 and IHMA599644, respectively. These were further diluted 1:100 into 1.1× CAMHB and used to inoculate the test wells as described below.
(§4) Imipenem in 10 mM 3-(N-morpholino)propanesulfonic acid (MOPS, pH 7) was stored in single use aliquots at −80° C. […] On the day of the assay, 4 μl of antibiotic was added to 45 μl of bacteria followed by 1 μl of test compound and mixed by pipetting and with an orbital shaker. The concentration of antibiotic used in the assay was 1 μg/ml. Microplates were covered and incubated at 35° C. for 22 hours to 24 hours. At the end of the incubation, absorbance was determined using a spectrophotometer. The synergistic concentration of MBLI was determined by identifying the lowest concentration of test compound in the presence of a given concentration of antibiotic that was required to inhibit 95% of the growth of the bacteria. The results for Examples 1-209 are reported in Table 1, expressed as the concentration of compound that potentiated the action of antibiotic (imipenem) affecting 95% inhibition of bacterial growth (MITC95).

[2] = test system: Klebsiella pneumoniae expressing VIM-1 (IHMA599644); assay type: cell-based; conditions: with imipenem 1 μg/ml; 95% inhibition of bacterial growth
Description: as §2, §3, §4

[3] = test system: Serratia marcescens expressing IMP-1 (CL5741); assay type: cell-based; conditions: with imipenem 1 μg/ml; 95% inhibition of bacterial growth
Description: as §2, §3, §4

[4] = test system: P. aeruginosa MB9798 (efflux+, IMP-1 plasmid); conditions: for MB9798 MITC95 P. aeruginosa uM Efflux WT: efflux + (MB9798) strain, imipenem at 2 μg/mL, in the presence of a class A, C, D serine β-lactamase inhibitor closely related to relebactam; for Efflux ratio: fold difference between efflux+ (MB9798) and efflux− (MB9799) strains
Source text: (§5) The strain background is Pseudomonas aeruginosa PAO1. A wild-type (M135919) and an isogenic strain in which multiple efflux pumps have been disrupted genetically were used. The MBL IMP-1, obtained from a clinical isolate was introduced into the strain pair by the following process:
(§6) The plasmid DNA was transformed into parental MB5919 (oprD+, efflux+, inducible AmpC) and MB5890 (oprD+, efflux−, inducible AmpC) isogenic strains by electroporation.
(§7) The strain set was then used as a pair to determine the effect of metallo-β-lactamase inhibitors of Formula I on the MIC of imipenem and/or ceftazidime. A fixed concentration of antibiotic is included in standard microbroth MIC tests, usually at the CLSI breakpoint concentration, A fixed amount of a class A/C beta-lactamase inhibitor is also included to inhibit the resident Pseudomonas AmpC enzyme. A serial titration of the metallo-β-lactamase inhibitor was included and the concentration of metallo-β-lactamase inhibitor which restores susceptibility of the strain to the included antibiotic was recorded. That concentration of metallo-β-lactamase inhibitor was then compared between the two strains to determine the fold difference between the efflux+(MB9798) and efflux−(MI39799) strains, which indicates the extent to which the MBLi is subject to efflux.

[5] = test system: P. aeruginosa MB9799 (efflux-, IMP-1 plasmid); assay type: cell-based, Pseudomonas aeruginosa; conditions: efflux − (MB9799) strain; imipenem at 2 μg/mL; in the presence of a class A, C, D serine β-lactamase inhibitor closely related to relebactam
Source text: as §5, §6, §7

[6] = CCF2-FA fluorescence assay, read-out: VIM2 IC50

Chain of NDM-1 (C7C422 whole entry, looked up, species assumed): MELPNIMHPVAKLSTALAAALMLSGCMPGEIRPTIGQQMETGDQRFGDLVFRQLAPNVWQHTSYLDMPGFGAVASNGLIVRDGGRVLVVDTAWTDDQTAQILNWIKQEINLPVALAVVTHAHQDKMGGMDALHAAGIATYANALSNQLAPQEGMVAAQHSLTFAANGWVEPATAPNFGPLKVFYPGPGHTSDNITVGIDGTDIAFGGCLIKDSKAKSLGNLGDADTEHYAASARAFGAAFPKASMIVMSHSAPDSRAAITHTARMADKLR
Chain of IMP-1 (P52699 whole entry, looked up, species assumed): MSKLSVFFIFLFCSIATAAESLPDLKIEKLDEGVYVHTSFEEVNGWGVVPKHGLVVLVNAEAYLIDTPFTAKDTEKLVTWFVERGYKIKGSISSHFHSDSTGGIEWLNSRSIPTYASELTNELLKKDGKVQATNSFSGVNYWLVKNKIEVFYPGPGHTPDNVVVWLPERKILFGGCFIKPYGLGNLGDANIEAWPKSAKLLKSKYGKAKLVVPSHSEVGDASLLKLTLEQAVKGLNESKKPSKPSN

Row | Compound | IC50 (NDM-1) [nM] | IC50 (IMP-1) [nM] | IC50 (VIM-1) [nM] | IC50 (VIM-2; VIM2 IC50, CCF2-FA fluorescence assay) [nM] | CLB30016 E. coli MITC95 NDM [1] [µM] | IHMA599644 K. pneumoniae MITC95 VIM [2] [µM] | CL5741 S. marcescens MITC95 IMP [3] [µM] | MB9798 MITC95 P. aeruginosa uM Efflux WT [4] [µM] | Efflux ratio [4] | MB9799 MITC95 P. aeruginosa uM Efflux Mutant [5] [µM] | IC50 (VIM-2; [6]) [nM]
1 | NC[C@@H](O)CNS(=O)(=O)c1ccc(N[C@H]2C[C@H](N)C2)c(-c2nnn[nH]2)c1S(N)(=O)=O [Example 192, (R)—N1-(3-amino-2-hydroxypropyl)-4-((3-aminocyclobutyl)amino)-3-(1H-tetrazol-5-yl)benzene-1,2-disulfonamide] | 66.3 | 97 | 67.5 | 200 | 1.56 | 6.25 | 3.13 | 6.25 | 2.00 | 3.13 | 
2 | NS(=O)(=O)c1c(S(=O)(=O)N[C@@H]2CCNC2)ccc(N2CC[C@H](O)C2)c1-c1nnn[nH]1 [Example 97, 4-[(3S)-3-hydroxypyrrolidin-1-yl]-N1-[(3R)-pyrrolidin-3-yl]-3-(1H-tetrazol-5-yl)benzene-1,2-disulfonamide] | 6.21 | 11.6 | 2.49 |  | 3.13 | 12.50 | 6.25 | 6.25 | 2.00 | 3.13 | 4.43
3 | NS(=O)(=O)c1c(S(=O)(=O)N[C@@H]2CCNC2)ccc(N2CCC3(CC2)CNC3)c1-c1nnn[nH]1 [Example 52, (R)-N1-(pyrrolidin-3-yl)-4-(2,7-diazaspiro[3.5]no-nan-7-yl)-3-(1H-tetrazol-5-yl)benzene-1,2-disulfonamide] | 0.48 | 3.06 | 0.5 |  | 0.78 | 1.56 | 1.56 | 0.78 | 1.00 | 0.78 | 8.18
4 | NC[C@@H](O)CNS(=O)(=O)c1ccc(N2CCC3CNCC3C2)c(-c2nnn[nH]2)c1S(N)(=O)=O (stereo partly drawn) [Example 141, N1-((R)-3-amino-2-hydroxypropyl)-4-(hexahydro-1H-pyrrolo[3,4-c]pyridin-5(6H)-yl)-3-(1H-tetrazol-5-yl)benzene-1,2-disulfonamide] | 15.8 | 11.9 | 0.43 |  | 1.56 | 1.56 | 1.56 | 6.25 | 4.00 | 1.56 | 15.7
5 | NS(=O)(=O)c1c(S(=O)(=O)N[C@@H]2CCNC2)ccc(NCC2CCNCC2)c1-c1nn[nH]n1 [Example 183, (R)-4-((piperidin-4-ylmethyl)amino)-N1-(pyrrolidin-3-yl)-3-(2H-tetrazol-5-yl)benzene-1,2-di sulfonamide] | 6.26 | 12.4 | 5.89 |  | 1.17 | 2.34 | 1.56 | 3.13 | 2.67 | 1.17 | 69.7
6 | C[C@H](CN)NS(=O)(=O)c1ccc(N2CC[C@@H](CN)[C@@H](F)C2)c(-c2nn[nH]n2)c1S(N)(=O)=O (racemic) [Example 8] | 0.19 | 1.12 | 0.07 |  | 0.20 | 0.78 | 0.39 | 0.78 | 2.00 | 0.39 | 2.35
7 | NS(=O)(=O)c1c(S(=O)(=O)N[C@@H]2CCNC2)ccc(N2CCCC(=NO)C2=O)c1-c1nn[nH]n1 [Example 152, (R)-4-(3-(hydroxyimino)-2-oxopiperidin-1-yl)-N1-(pyrrolidin-3-yl)-3-(2H-tetrazol-5-yl)benzene-1,2-disulfonamide] | 0.08 | 6.8 | 0.16 |  | 0.39 | 3.13 | 1.56 | 3.13 | 2.00 | 1.56 | 0.74
8 | C[C@H](CN)NS(=O)(=O)c1ccc(N2CC[C@@H](N)[C@@H](F)C2)c(-c2nn[nH]n2)c1S(N)(=O)=O (racemic) [Example 5] | 0.96 | 1.81 | 0.13 |  | 0.10 | 0.78 | 0.20 | 0.78 | 2.00 | 0.39 | 2.54
9 | NC[C@@H](O)CNS(=O)(=O)c1ccc(N2CC[C@@H](N)[C@@H](F)C2)c(-c2nn[nH]n2)c1S(N)(=O)=O (single isomer, unassigned) [Example 1] |  | 5.02 | 0.31 |  | 0.10 | 0.39 | 0.20 | 0.78 | 2.00 | 0.39 | 3.58
10 | NC[C@@H](O)CNS(=O)(=O)c1ccc(N2CC[C@H](CN)C2)c(-c2nn[nH]n2)c1S(N)(=O)=O [Example 124, N1-((R)-3-amino-2-hydroxypropyl)-4-((R)-3-(aminomethyl)pyrrolidin-1-yl)-3-(2H-tetrazol-5-yl)benzene-1,2-disulfonamide] |  | 23.1 | 3.18 |  | 0.39 | 0.78 | 0.78 | 3.13 | 2.00 | 1.56 | 37.2
